According to the supplement of paper PMC10307832:

Tests used:
Assay in all cases: relative viability (nuclei count vs DMSO), 5 days (fraction); higher = more cells survive
[1] = compound: COc1ncc(-c2ccc3nccc(-c4ccnnc4)c3c2)cc1NS(=O)(=O)c1ccc(F)cc1F [Omipalisib] + Cc1cc(Nc2cc(N3CCN(C)CC3)nc(Sc3ccc(NC(=O)C4CC4)cc3)n2)n[nH]1 [Tozasertib] (partner 0.1 µM)
Method in brief: (§1)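 Lung cancer cell lines in 1536-well plates got either a single drug or a fixed anchor-drug dose together with five library-drug doses (not always all listed) in √10 steps, by pin tool, on the day after seeding. Nuclei were counted after 5 days, and relative viability is the treated-to-vehicle ratio of nuclei counts. Values are medians of duplicate plates.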

[2] = compound: COc1ncc(-c2ccc3nccc(-c4ccnnc4)c3c2)cc1NS(=O)(=O)c1ccc(F)cc1F [Omipalisib] + C[C@@H](Oc1cc(-c2cnn(C3CCNCC3)c2)cnc1N)c1c(Cl)ccc(F)c1Cl [Crizotinib] (partner 1 µM)
Method in brief: as §1

[3] = compound: COc1ncc(-c2ccc3nccc(-c4ccnnc4)c3c2)cc1NS(=O)(=O)c1ccc(F)cc1F [Omipalisib] + Nc1ncn([C@H]2C[C@H](O)[C@@H](CO)O2)c(=O)n1 [Decitabine] (partner 2 µM)
Method in brief: as §1

[4] = compound: COc1ncc(-c2ccc3nccc(-c4ccnnc4)c3c2)cc1NS(=O)(=O)c1ccc(F)cc1F [Omipalisib] + CCNC(=O)c1noc(-c2cc(C(C)C)c(O)cc2O)c1-c1ccc(CN2CCOCC2)cc1 [Luminespib] (partner 0.01 µM)
Method in brief: as §1

[5] = compound: COc1ncc(-c2ccc3nccc(-c4ccnnc4)c3c2)cc1NS(=O)(=O)c1ccc(F)cc1F [Omipalisib] + CC(C)C[C@H](NC(=O)[C@H](Cc1ccccc1)NC(=O)c1cnccn1)B(O)O [Bortezomib] (partner 0.002 µM)
Method in brief: as §1

[6] = compound: COc1ncc(-c2ccc3nccc(-c4ccnnc4)c3c2)cc1NS(=O)(=O)c1ccc(F)cc1F [Omipalisib] + CC(=O)Nc1cccc(-n2c(=O)n(C3CC3)c(=O)c3c(Nc4ccc(I)cc4F)n(C)c(=O)c(C)c32)c1 [Trametinib] (partner 0.02 µM)
Method in brief: as §1

Cell Line | relative viability ([1]; first compound 0.0003 µM) | relative viability ([1]; first compound 0.003 µM) | relative viability ([1]; first compound 0.03 µM) | relative viability ([2]; first compound 0.0003 µM) | relative viability ([2]; first compound 0.003 µM) | relative viability ([2]; first compound 0.03 µM) | relative viability ([3]; first compound 0.0003 µM) | relative viability ([3]; first compound 0.003 µM) | relative viability ([3]; first compound 0.03 µM) | relative viability ([4]; first compound 0.0003 µM) | relative viability ([4]; first compound 0.003 µM) | relative viability ([4]; first compound 0.03 µM) | relative viability ([5]; first compound 0.0003 µM) | relative viability ([5]; first compound 0.003 µM) | relative viability ([5]; first compound 0.03 µM) | relative viability ([6]; first compound 0.0003 µM) | relative viability ([6]; first compound 0.003 µM) | relative viability ([6]; first compound 0.03 µM)
NCI-H727 | 0.666 | 0.623 | 0.378 | 0.707 | 0.649 | 0.391 | 0.778 | 0.712 | 0.755 | 0.35 | 0.281 | 0.395 | 0.841 | 0.591 | 0.511 | 0.381 | 0.337 | 0.264
NCI-H838 | 0.293 | 0.222 | 0.221 | 0.767 | 0.57 | 0.354 | 0.471 | 0.391 | 0.268 | 0.332 | 0.269 | 0.203 | 0.743 | 0.652 | 0.234 | 0.494 | 0.389 | 0.199
NCI-H1355 | 0.493 | 0.409 | 0.21 | 0.999 | 0.653 | 0.327 | 0.366 | 0.326 | 0.242 | 0.637 | 0.579 | 0.273 | 1.16 | 0.925 | 0.375 | 0.361 | 0.263 | 0.194
NCI-H1437 | 0.422 | 0.348 | 0.244 | 0.864 | 0.894 | 0.702 | 0.519 | 0.564 | 0.398 | 1.15 | 1.02 | 0.926 | 0.463 | 0.465 | 0.227 | 0.583 | 0.31 | 0.209
NCI-H1650 | 0.401 | 0.375 | 0.312 | 0.794 | 1.16 | 0.717 | 0.272 | 0.395 | 0.42 | 0.179 | 0.182 | 0.169 | 0.197 | 0.184 | 0.2 | 0.438 | 0.633 | 0.512
NCI-H1651 | 0.711 | 0.384 | 0.539 | 0.749 | 0.762 | 0.569 | 0.528 | 0.476 | 0.446 | 0.64 | 0.648 | 0.565 | 0.872 | 0.86 | 0.747 | 0.712 | 0.711 | 0.535
NCI-H1666 | 0.605 | 0.524 | 0.552 | 0.974 | 0.743 | 0.494 | 0.843 | 0.614 | 0.567 | 0.983 | 0.955 | 0.729 | 0.749 | 0.473 | 0.333 | 0.872 | 0.592 | 0.61
NCI-H1734 | 0.243 | 0.233 | 0.221 | 0.574 | 0.38 | 0.213 | 0.442 | 0.331 | 0.347 | 0.208 | 0.203 | 0.171 | 0.937 | 0.544 | 0.276 | 0.54 | 0.362 | 0.288
